One may read the IC50 as the concentration that inhibits the measured activity by half.

The structures appear in SMILES notation. Where only a bound is given, the exact number is not on record here.

Holding throughout (assay type): cell-based
In one assay the test system is N87. In words: In vitro tumor cell proliferation assay (Cell Titer-Glo) in N87 cells. The note with it: N87 human gastric carcinoma overexpressing HER2 and HER1; 72 hours exposure; read-out: IC50, activities in N87 cell lines. The method, boiled down: (§1)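 Viability after 72 h drug exposure at 37 °C was read as CellTiter-Glo ATP luminescence, giving IC50. Cells (2.5×10^3/well, RPMI + 10% FBS) were compound-treated one day post-seeding, 0.1% DMSO final: A431 overexpresses HER1, N87 overexpresses HER2 and HER1.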
On the technique in general: In ATP-based viability assays light output follows the ATP content of the culture.

The subject of a further assay is H1975 cells. In words: In vitro tumor cell proliferation assay (Cell Titer-Glo) in H1975 cells. The conditions noted are these: NCI-H1975; H1975 human NSCLC expressing mutant HER1 (L858R,T790M); 72 hours exposure; read-out: IC50, activities in H 1975 cell lines. The method, boiled down:
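After 72 h compound exposure at 37° C (top 10 uM down to 64 pM, 0.1% DMSO), viability of EGFR L858R/T790M-mutant H1975 cells was read as ATP luminescence.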

The test system of another assay is A431 cells. In words: In vitro tumor cell proliferation assay (Cell Titer-Glo) in A431 cells. The conditions noted are these: Homo sapiens, A-431, 72 h, A431 human epidermoid carcinoma overexpressing HER1; 72 hours exposure; read-out: IC50, activities in A431 cell lines. The procedure, abridged:
as §1

As for `CN(C/C=C/C(=O)N1CCc2c(sc3ncnc(Nc4ccc(Cl)c(Cl)c4)c23)C1)C1CCCCC1` [Example 203, 7-{(2E)-4-[cyclohexyl(methyl)amino]but-2-enoyl}-N-(3,4-dichlorophenyl)-5,6,7,8-tetrahydropyrido [4′,3′:4,5]thieno[2,3-d]pyrimidin-4-amine], the IC50 is < 0.2 µM with N87, 1 to 10 µM in the assay on H1975 cells and 0.2 to 1 µM with A431 cells.

Consider `CC1CCCCN1C/C=C/C(=O)N1CCc2c(sc3ncnc(Nc4ccc(F)c(Cl)c4)c23)C1` (stereo not drawn) [Example 56, N-(3-chloro-4-fluorophenyl)-7-[(2E)-4-(2-methylpiperidin-1-yl)but-2-enoyl]-5,6,7,8-tetrahydropyrido [4′,3′:4,5]thieno[2,3-d]pyrimidin-4-amine], for which the IC50 in the assay with N87 was < 0.2 µM; with H1975 cells it was 0.2 to 1 µM; with A431 cells it was 0.2 to 1 µM.

For the compound `CCN(C/C=C/C(=O)N1CCc2c(sc3ncnc(Nc4cccc(Br)c4)c23)C1)C1CCCCC1` [Example 201, N-(3-bromophenyl)-7-{(2E)-4-[cyclohexyl(ethyl)amino]but-2-enoyl}-5,6,7,8-tetrahydropyrido [4′,3′:4,5]thieno[2,3-d]pyrimidin-4-amine], the values for the IC50 with N87, with H1975 cells and with A431 cells were < 0.2 µM, 0.2 to 1 µM and 0.2 to 1 µM, respectively.

Regarding `Cc1cccc(COc2ccc(Nc3ncnc4sc5c(c34)CCN(C(=O)/C=C/CN(C)C)C5)cc2Cl)n1` [Example 74, N-{3-chloro-4-[(6-methylpyridin-2-yl)methoxy]phenyl}-7-[(2E)-4-(dimethylamino)but-2-enoyl]-5,6,7,8-tetrahydropyrido [4′,3′:4,5]thieno[2,3-d]pyrimidin-4-amine], the IC50 was < 0.2 µM in the assay on N87, 1 to 10 µM with H1975 cells and 1 to 10 µM with A431 cells.

Regarding `CC(C)N(C)C/C=C/C(=O)N1CCc2c(sc3ncnc(Nc4ccc5c(ccn5Cc5cccc(F)c5)c4)c23)C1` [Example 122, N-[1-(3-fluorobenzyl)-1H-indol-5-yl]-7-{(2E)-4-[isopropyl(methyl)amino]but-2-enoyl}-5,6,7,8-tetrahydropyrido [4′,3′:4,5]thieno[2,3-d]pyrimidin-4-amine], the IC50 with N87 was < 0.2 µM; in the assay with H1975 cells, < 0.2 µM; in the assay with A431 cells, 0.2 to 1 µM.

For `C=C(CN1CCOCC1)C(=O)N1CCc2c(sc3ncnc(Nc4ccc(OCc5ccccn5)c(Cl)c4)c23)C1` [Example 144], the IC50 in the assay with N87 is < 0.2 µM; in the assay with H1975 cells it was 1 to 10 µM; with A431 cells it was 1 to 10 µM.

Take `CN(C)C/C=C/C(=O)N1CCc2c(sc3ncnc(Nc4ccc(Cl)c(Cl)c4)c23)C1` [Example 165, N-(3,4-dichlorophenyl)-7-{(2E)-4-[dimethylamino]but-2-enoyl}-5,6,7,8-tetrahydropyrido[4′,3′:4,5]thieno[2,3-d]pyrimidin-4-amine]: the IC50 is < 0.2 µM with N87, < 0.2 µM in the assay on H1975 cells and 0.2 to 1 µM with A431 cells.

In the case of `CN(C)CC/C=C/C(=O)N1CCc2c(sc3ncnc(Nc4ccc(OCc5ccccn5)c(Cl)c4)c23)C1` [Example 150, 1-[4-[3-chloro-4-(pyridin-2-ylmethoxy)-phenylamino]-5,8-dihydro-6H-9-thia-1,3,7-triaza-fluoren-7-yl}-5-dimethylamino-pent-2-en-1-one], the IC50 in the assay on N87, with H1975 cells and in the assay on A431 cells was < 0.2 µM in each case.

Consider `CC1CCCN(C/C=C/C(=O)N2CCc3c(sc4ncnc(Nc5ccc(OCc6ccccn6)c(Cl)c5)c34)C2)C1` (stereo not drawn) [Example 67, N-[3-chloro-4-(pyridin-2-ylmethoxy)phenyl]-7-[(2E)-4-(3-methylpiperidin-1-yl)but-2-enoyl]-5,6,7,8-tetrahydropyrido [4′,3′:4,5]thleno[2,3-d]pyrimidin-4-amine], for which the IC50 in the assay on N87 is < 0.2 µM; with H1975 cells it was 0.2 to 1 µM; in the assay on A431 cells, 0.2 to 1 µM.

On to `C#Cc1cccc(Nc2ncnc3sc4c(c23)CCN(C(=O)/C=C/CN(C)C)C4)c1` [Example 17, 7-[(2E)-4-(dimethylamino)but-2-enoyl]-N-(3-ethynylphenyl)-5,6,7,8-tetrahydropyrido[4′,3′:4,5]thieno[2,3-d]pyrimidin-4-amine], for which the results for the IC50 with N87, with H1975 cells and in the assay with A431 cells were < 0.2 µM, 0.2 to 1 µM and < 0.2 µM, respectively.

Regarding `O=C(/C=C/CN1CCOCC1)N1CCc2c(sc3ncnc(Nc4ccc(OCc5ccccn5)c(Cl)c4)c23)C1` [Example 1, 1-{4-[3-Chloro-4-(pyridin-2-ylmethoxy)-phenylamino]-5,8-dihydro-6H-9-thia-1,3,7 triaza-fluoren-7-yl}-4-morpholin-4-yl-but-2-en-1-one], the IC50 is < 0.2 µM in the assay on N87, 0.2 to 1 µM with H1975 cells and < 0.2 µM in the assay on A431 cells.

With `CCN(CC)C/C=C/C(=O)N1CCc2c(sc3ncnc(Nc4cccc(Br)c4)c23)C1` [Example 197, N-(3-bromophenyl)-7-[(2E)-4-(diethylamino)but-2-enoyl]-5,6,7,8-tetrahydropyrido [4′,3′:4,5]thieno[2,3-d]pyrimidin-4-amine], the IC50 is < 0.2 µM in the assay on N87, 0.2 to 1 µM in the assay on H1975 cells and < 0.2 µM in the assay with A431 cells.

For `CCc1cccc(Nc2ncnc3sc4c(c23)CCN(C(=O)/C=C/CN(C)C)C4)c1` [Example 178, 7-[(2E)-4-(dimethylamino)but-2-enoyl]-N-(3-ethylphenyl)-5,6,7,8-tetrahydropyrido [4′,3′:4,5]thieno[2,3-d]pyrimidin-4-amine], the values for the IC50 with N87, in the assay with H1975 cells and in the assay on A431 cells were < 0.2 µM, 1 to 10 µM and 1 to 10 µM, respectively.

As for `O=C(/C=C/CN1CCc2ccccc21)N1CCc2c(sc3ncnc(Nc4ccc(OCc5ccccn5)c(Cl)c4)c23)C1` [Example 44, N-[3-chloro-4-(pyridin-2-ylmethoxy)phenyl]-7-[(2E)-4-(2,3-dihydro-1H-indol-1-yl)but-2-enoyl]-5,6,7,8-tetrahydropyndo [4′,3′:4,5]thieno[2,3-d]pyrimidin-4-amine], the results for the IC50 with N87, in the assay with H1975 cells and with A431 cells were < 0.2 µM, 1 to 10 µM and 1 to 10 µM, respectively.

As to `CN(C)C/C=C/C(=O)N1CCc2c(sc3ncnc(Nc4ccc(Cl)cc4)c23)C1` [Example 163, N-(4-chlorophenyl)-7-[(2E)-4-(dimethylamino)but-2-enoyl]-5,6,7,8-tetrahydropyrido [4′,3′:4,5]thieno[2,3-d]pyrimidin-4-amine], the IC50 with N87 is < 0.2 µM; with H1975 cells, 0.2 to 1 µM; in the assay on A431 cells it was 0.2 to 1 µM.

With `CN(C/C=C/C(=O)N1CCc2c(sc3ncnc(Nc4ccc5c(ccn5Cc5ccccn5)c4)c23)C1)C(C)(C)C` [Example 129], the values for the IC50 in the assay on N87, in the assay on H1975 cells and with A431 cells were < 0.2 µM, < 0.2 µM and 0.2 to 1 µM, respectively.

Take `C=C(CN1CCOCC1)C(=O)N1CCc2c(sc3ncnc(Nc4ccc(F)c(Cl)c4)c23)C1` [Example 145, N-(3-chloro-4-fluorophenyl)-7-[2-(morpholin-4-ylmethyl)acryloyl]-5,6,7,8-tetrahydropyrido [4′,3′:4,5]thieno[2,3-d]pyrimidin-4-amine]: the IC50 is 0.2 to 5 µM in the assay with N87, 1 to 10 µM in the assay on H1975 cells and 1 to 10 µM in the assay on A431 cells.

As to `CCN(CC)C/C=C/C(=O)N1CCc2c(sc3ncnc(Nc4ccc(F)c(Cl)c4)c23)C1` [Example 9, N-(3-chloro-4-fluorophenyl)-7-[(2E)-4-(diethylamino)but-2-enoyl]-5,6,7,8-tetrahydropyrido[4′,3′:4,5]thieno[2,3-d]pyrimidin-4-amine], the IC50 is < 0.2 µM in the assay with N87, 1 to 10 µM in the assay on H1975 cells and < 0.2 µM in the assay on A431 cells.

Regarding `C#Cc1cccc(Nc2ncnc3sc4c(c23)CCN(C(=O)C(=C)CN(CC)CC)C4)c1` [Example 148, 7-{2-[(diethylamino)methyl]acryloyl}-N-(3-ethynylphenyl)-5,6,7,8-tetrahydropyrido [4′,3′:4,5]thieno[2,3-d]pyrimidin-4-amine], the values for the IC50 in the assay with N87, in the assay with H1975 cells and in the assay with A431 cells were < 0.2 µM, 1 to 10 µM and 1 to 10 µM, respectively.

Turning to `CCN(CC)C/C=C/C(=O)N1CCc2c(sc3ncnc(Nc4ccc5c(cnn5Cc5cccc(F)c5)c4)c23)C1` [Example 99, 7-[(2E)-4-(diethylamino)but-2-enoyl]-N-[1-(3-fluorobenzyl)-1H-indazol-5-yl]5,6,7,8-tetrahydropyrido [4′,3′:4,5]thieno[2,3-d]pyrimidin-4-amine], the IC50 is < 0.2 µM with N87, 0.2 to 1 µM in the assay with H1975 cells and 0.2 to 1 µM with A431 cells.

Turning to `CN(C)C/C=C/C(=O)N1CCc2c(sc3ncnc(Nc4ccc(F)cc4F)c23)C1` [Example 162, N-(2,4-difluorophenyl)-7-[(2E)-4-(dimethylamino)but-enoyl]-5,6,7,8-tetrahydropyrido [4′,3′:4,5]thieno[2,3-d]pyrimidin-4-amine], the results for the IC50 in the assay on N87, in the assay on H1975 cells and in the assay with A431 cells were < 0.2 µM, 1 to 10 µM and 0.2 to 1 µM, respectively.

With `O=C(/C=C/CN1CCCCC1)N1CCc2c(sc3ncnc(Nc4ccc(OCc5ccccn5)c(Cl)c4)c23)C1` [Example 4, N-[3-chloro-4-(pyridin-2-ylmethoxy)phenyl]-7-[(2E)-4-piperidin-1-ylbut-2-enoyl]-5,6,7,8-tetrahydropyrido[4′,3′:4,5]thieno[2,3-d]pyrimidin-4-amine], the values for the IC50 in the assay on N87, in the assay with H1975 cells and with A431 cells were < 0.2 µM, 0.2 to 1 µM and < 0.2 µM, respectively.

In the case of `C#Cc1cccc(Nc2ncnc3sc4c(c23)CCN(C(=O)/C=C/CN(CC)CC)C4)c1` [Example 16, 7-[(2E)-4-(diethylamino)but-2-enoyl]-N-(3-ethynylphenyl)-5,6,7,8-tetrahydropyrido[4′,3′:4,5]thieno[2,3-d]pyrimidin-4-amine], the IC50 in the assay with N87 was < 0.2 µM; in the assay on H1975 cells it was 0.2 to 1 µM; in the assay on A431 cells, < 0.2 µM.
